The source of these data is PubChem BioAssay (NCI).

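Briefly, cells in 96-well plates were exposed to five compound concentrations for 48 h, and endpoints were estimated by linear interpolation. At the GI50, growth is halved. TGI is the concentration that stops growth completely.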

Test systems include A498 renal; MCF7 breast; NCI-H23 lung; OVCAR-3 ovarian; OVCAR-8 ovarian; RXF 393 renal; SF-539 CNS; SK-MEL-2 melanoma; SNB-19 CNS; SW-620 colon.
Holding throughout (experiment): DTP human tumour cell line panel, 48 h

As usually defined, the GI50 is the concentration that inhibits growth by half. The TGI is the concentration at which net growth stops. In the case of `Nc1nc2ccc(CNc3ccc(C(=O)NC(CC(=O)O)C(=O)O)cc3)cc2c(=O)[nH]1` (stereo not given), the GI50 is greater than 38.9 µM in the test on A498 renal; 1.2 µM in the test with MCF7 breast; 5.83 µM with NCI-H23 lung; 16.2 µM in the test with OVCAR-3 ovarian; 1.16 µM in the test with OVCAR-8 ovarian; greater than 34.7 µM in the test on RXF 393 renal. For the same compound, the GI50 was 3.3 µM in the test on SF-539 CNS, greater than 100 µM with SK-MEL-2 melanoma, greater than 82.5 µM in the test on SNB-19 CNS and 0.525 µM with SW-620 colon. In addition, the TGI in the test on A498 renal, in the test on MCF7 breast, with NCI-H23 lung, in the test with OVCAR-3 ovarian, in the test with OVCAR-8 ovarian and in the test with RXF 393 renal was greater than 100 µM in each case. Besides, the TGI in the test with SF-539 CNS, with SK-MEL-2 melanoma, in the test with SNB-19 CNS and with SW-620 colon was greater than 100 µM each time.

`Cc1ccc(NC(=S)NNC(=S)Nc2ccc(C)cc2)cc1`: the GI50 is 2.96 µM with A498 renal; 3.75 µM in the test with MCF7 breast; 5.98 µM in the test with NCI-H23 lung; 2.9 µM in the test on OVCAR-3 ovarian; 7.95 µM with OVCAR-8 ovarian; 5.56 µM in the test on RXF 393 renal. The GI50 with SF-539 CNS is 5.46 µM; with SK-MEL-2 melanoma, 2.66 µM; with SNB-19 CNS it was 8.36 µM; in the test on SW-620 colon it was 3.81 µM. Further, the TGI is greater than 100 µM in the test on A498 renal; greater than 100 µM in the test with MCF7 breast; greater than 100 µM with NCI-H23 lung; 7.51 µM in the test on OVCAR-3 ovarian; greater than 100 µM in the test on OVCAR-8 ovarian; greater than 100 µM in the test on RXF 393 renal. Moreover, the TGI with SF-539 CNS is greater than 100 µM; in the test on SK-MEL-2 melanoma, 8.68 µM; in the test on SNB-19 CNS it was greater than 100 µM; in the test with SW-620 colon, greater than 100 µM.

In the case of `C[n+]1cccc(NC(=O)c2ccc3ccc4ccc(C(=O)Nc5ccc[n+](C)c5)nc4c3n2)c1`, the GI50 with A498 renal was 7.14 µM; in the test on MCF7 breast, 2.35 µM; in the test on NCI-H23 lung, 1.41 µM; with OVCAR-3 ovarian, 4.3 µM; in the test with OVCAR-8 ovarian, 9.02 µM; in the test with RXF 393 renal, 1.98 µM. Besides, the GI50 in the test with SF-539 CNS is 3.33 µM; with SK-MEL-2 melanoma, 6.71 µM; in the test with SNB-19 CNS, 1.61 µM; with SW-620 colon it was 2.91 µM. Further, the TGI in the test with A498 renal is greater than 28 µM; in the test on MCF7 breast, greater than 100 µM; with NCI-H23 lung it was greater than 45 µM; with OVCAR-3 ovarian, greater than 100 µM; in the test on OVCAR-8 ovarian it was greater than 100 µM; in the test with RXF 393 renal it was 4.75 µM. Besides, the TGI in the test on SF-539 CNS is 15.6 µM; with SK-MEL-2 melanoma, greater than 100 µM; in the test on SNB-19 CNS it was greater than 27 µM; in the test on SW-620 colon, greater than 100 µM.

`Nc1c(C(=O)Nc2cccc(Cl)c2)sc2nc3c(cc12)C(O)CCC3` (stereo not given): the GI50 in the test on A498 renal is 0.182 µM; in the test on MCF7 breast, 0.344 µM; in the test with NCI-H23 lung, 0.711 µM; in the test with OVCAR-3 ovarian it was 0.311 µM; with OVCAR-8 ovarian, 0.714 µM; in the test with RXF 393 renal it was 0.396 µM. Also, the GI50 with SF-539 CNS is 0.275 µM; in the test on SK-MEL-2 melanoma, 0.585 µM; in the test on SNB-19 CNS it was 4.35 µM; in the test with SW-620 colon, 0.48 µM. Besides, the TGI in the test with A498 renal is 13.6 µM; with MCF7 breast it was 53.4 µM; in the test on NCI-H23 lung, greater than 100 µM; in the test with OVCAR-3 ovarian it was 1.22 µM; with OVCAR-8 ovarian it was 22.9 µM; in the test on RXF 393 renal, 2.87 µM. Further, the TGI was 0.965 µM with SF-539 CNS, 48.6 µM with SK-MEL-2 melanoma, 99.4 µM in the test with SNB-19 CNS and greater than 89.3 µM in the test on SW-620 colon.

As to `COc1cccc2nc(Nc3cccc(NC(=O)c4ccc(N5CCN(C)CC5)c(C(F)(F)F)c4)c3)ccc12`, the GI50 in the test with A498 renal was 1.8 µM; with MCF7 breast it was 0.851 µM; with NCI-H23 lung, 2.93 µM; in the test with OVCAR-3 ovarian it was 1.21 µM; with OVCAR-8 ovarian, 1.69 µM; in the test on RXF 393 renal, 0.802 µM. The GI50 with SF-539 CNS is 0.895 µM; in the test on SK-MEL-2 melanoma, 1.36 µM; with SNB-19 CNS, 1.11 µM; in the test with SW-620 colon, 0.968 µM. Further, the TGI with A498 renal was 6.46 µM; in the test with MCF7 breast it was 1.9 µM; in the test on NCI-H23 lung it was 10.6 µM; with OVCAR-3 ovarian, 3.07 µM; in the test on OVCAR-8 ovarian it was 5.93 µM; in the test on RXF 393 renal, 2.96 µM. Further, the TGI was found to be 1.66 µM in the test with SF-539 CNS, 3.65 µM with SK-MEL-2 melanoma, 2.29 µM with SNB-19 CNS and 2.08 µM in the test on SW-620 colon.

For the compound `Cc1[nH]c(C(=O)Nc2cccc(OC3CCNCC3)c2)c(Cl)c1Cl`, the GI50 was 1.89 µM in the test with A498 renal; 1.5 µM with MCF7 breast; 2.14 µM with NCI-H23 lung; 1.97 µM with OVCAR-3 ovarian; 2.05 µM in the test with OVCAR-8 ovarian; 1.74 µM in the test with RXF 393 renal. The GI50 in the test on SF-539 CNS was 1.64 µM; in the test on SK-MEL-2 melanoma, 2.14 µM; in the test with SNB-19 CNS it was 2.11 µM; with SW-620 colon, 1.88 µM. Also, the TGI in the test with A498 renal amounted to 4.6 µM; in the test on MCF7 breast, 3.05 µM; with NCI-H23 lung it was 5.54 µM; with OVCAR-3 ovarian it was 4.01 µM; in the test with OVCAR-8 ovarian, 4.31 µM; with RXF 393 renal it was 3.46 µM. Moreover, the TGI came to 3.06 µM with SF-539 CNS, 4.54 µM in the test on SK-MEL-2 melanoma, 5.18 µM in the test with SNB-19 CNS and 3.64 µM in the test with SW-620 colon.

`C=C(C(=O)c1ccccc1)C(NC(C)(C)C)c1ccccc1` (stereo not given): the GI50 in the test on A498 renal is 1.7 µM; with MCF7 breast it was 1.06 µM; in the test on NCI-H23 lung it was 1.77 µM; in the test with OVCAR-3 ovarian, 1.3 µM; in the test with OVCAR-8 ovarian, 3.02 µM; in the test with RXF 393 renal, 1.21 µM. The GI50 in the test with SF-539 CNS was 3.21 µM; in the test with SK-MEL-2 melanoma it was 1.88 µM; in the test on SNB-19 CNS, 4.2 µM; with SW-620 colon, 1.14 µM. Also, the TGI with A498 renal was found to be 3.25 µM; in the test with MCF7 breast, 8.21 µM; in the test on NCI-H23 lung, 4.93 µM; with OVCAR-3 ovarian, 3.24 µM; in the test with OVCAR-8 ovarian it was 10.8 µM; in the test with RXF 393 renal, 2.69 µM. In addition, the concentration for total growth inhibition (TGI) is 8.36 µM in the test with SF-539 CNS, 4.78 µM in the test on SK-MEL-2 melanoma, 16 µM with SNB-19 CNS and 3.44 µM in the test on SW-620 colon.
